Measurements taken from ChEMBL document CHEMBL5223175, “Discovery of novel 2-oximino-2-indolylacetamide derivatives as potent anticancer agents capable of inducing cell autophagy and ferroptosis” (Bioorg Med Chem, 2023).
Active and inactive are the calls of the source. The calls are words filed in the database; no cut-off is given here.

Assays:
5-8F [1] = test: Downregulation of p-ERK1/2 in human 5-8F cells at 10 to 30 uM by Western blotting analysis; type: functional, cell-based; details: dose 10-30 µM
FaDu = test: Antiproliferative activity against human FaDu cells assessed as reduction in cell viability incubated for 72 hrs by CCK-8 assay; type: functional, cell-based
CAL-27 = test: Antiproliferative activity against human CAL-27 cells assessed as reduction in cell viability incubated for 72 hrs by CCK-8 assay; type: functional, cell-based; details: CAL-27, 72 h
5-8F [2] = test: Induction of apoptosis in human 5-8F cells assessed as downregulation of Bcl-2 expression at 10 to 30 uM incubated for 48 hrs by Western blotting analysis; type: functional, cell-based; details: dose 10-30 µM
5-8F [3] = test: Induction of apoptosis in human 5-8F cells at 30 uM incubated for 48 hrs by Annexin V-FITC and PI staining based flow cytometry analysis; type: functional
5-8F [4] = test: Antitumor activity against human 5-8F cells xenografted in BALB/c mouse assessed as decrease in Ki67 expression at 10 to 20 mg/kg, ip administered daily; type: functional, organism-based; details: dose 10-20 mg/kg
5-8F [5] = test: Antiproliferative activity against human 5-8F cells assessed as reduction in cell viability at 5 to 40 uM incubated for 48 hrs by CCK-8 assay; type: functional, cell-based; details: dose 5-40 µM
5-8F [6] = test: Induction of ferroptosis in human 5-8F cells assessed as decrease in GPx4 expression at 10 to 30 uM incubated for 48 hrs in presence of Era by Western blotting analysis; type: functional, cell-based; details: dose 10-30 µM
5-8F [7] = test: Induction of lipid peroxidation in human 5-8F cells at 30 uM after 48 hrs by BODIPY C11 staining based fluorescence microscopy analysis; type: functional, cell-based
5-8F [8] = test: Induction of apoptosis in human 5-8F cells assessed as appearance of rounded cells incubated for 48 hrs by microscopic analysis; type: functional, cell-based; details: dose 10-30 µM
[9] = Toxicity in BALB/c mouse xenografted with human 5-8F cells assessed as change in liver morphology at 10 to 20 mg/kg, ip administered daily by H and E staining based assay; type: organism-based; details: in vivo, dose 10-20 mg/kg
[10] = Antiproliferative activity against human NP69SV40T cells assessed as reduction in cell viability incubated for 72 hrs by CCK-8 assay; type: toxicity, cell-based
5-8F [11] = test: Induction of ferroptosis in human 5-8F cells assessed as decrease in GPx4 expression at 10 to 30 uM incubated for 48 hrs by Western blotting analysis; type: functional, cell-based; details: dose 10-30 µM
5-8F [12] = test: Induction of apoptosis in human 5-8F cells assessed as upregulation of cleaved PARP expression at 10 to 30 uM incubated for 48 hrs by Western blotting analysis; type: functional, cell-based; details: dose 10-30 µM
[13] = Toxicity in BALB/c mouse xenografted with human 5-8F cells assessed as change in heart morphology at 10 to 20 mg/kg, ip administered daily by H and E staining based assay; type: organism-based; details: in vivo, dose 10-20 mg/kg
[14] = Toxicity in BALB/c mouse xenografted with human 5-8F cells assessed as change in kidney morphology at 10 to 20 mg/kg, ip administered daily by H and E staining based assay; type: organism-based; details: in vivo, dose 10-20 mg/kg
5-8F [15] = test: Induction of ferroptosis in human 5-8F cells assessed as change in mitochondrial morphology at 30 uM incubated for 48 hrs by TEM analysis; type: functional, cell-based
5-8F [16] = test: Induction of ferroptosis in human 5-8F cells assessed as appearance of thickened cristae at 30 uM incubated for 48 hrs by TEM analysis; type: functional, cell-based
5-8F [17] = test: Antiproliferative activity against human 5-8F cells assessed as decrease in cell viability at 30 uM incubated for 48 hrs in presence of Fer-1; type: functional, cell-based
5-8F [18] = test: Induction of lipid peroxidation in human 5-8F cells at 30 uM after 48 hrs by flow cytometry analysis; type: functional, cell-based
5-8F [19] = test: Induction of ferroptosis in human 5-8F cells assessed as appearance of small swollen contractile punctate structures at 30 uM incubated for 48 hrs by MitoTracker Red staining based confocal microscopic analysis; type: functional, cell-based

Cn1cc(/C(=N\O)C(=O)Nc2ccc(Cl)cc2)c2ccccc21
Activity (5-8F [1]): Active
IC50 (FaDu): 22.2 µM
IC50 (CAL-27): 13.7 µM
Activity (5-8F [2]): Active
Activity (5-8F [3]): 29.1%
Activity (5-8F [4]): Active
Activity (5-8F [5]): Active
Activity (5-8F [6]): Active
Activity (5-8F [7]): Active
Activity (5-8F [8]): Dose-Dependent Effect
Activity [9]: Non-Toxic
IC50 at 72 h [10]: 70.9 µM
Activity (5-8F [11]): Active
Activity (5-8F [12]): Active
Activity [13]: Non-Toxic
Activity [14]: Non-Toxic
Activity (5-8F [15]): Active
Activity (5-8F [16]): Active
Activity (5-8F [17]): inactive
Activity (5-8F [18]): Active
Activity (5-8F [19]): Active
